Earlier results in patent US7204982B2, “Compositions and methods for treatment and detection of multiple cancers” (The Regents of the University of California, priority 2002, dated 2007).
Where a name gives a salt, the structure may show the parent alone.

Tests used:
malignant gliomas = details: high doses, orally administered; Couldwell et al. 1996
[1] = test system: human glioblastoma cell lines (U87, U373, and U138); details: cell lines lack detectable estrogen receptor expression

Q: With CC/C(=C(\c1ccccc1)c1ccc(OCCN(C)C)cc1)c1ccccc1 [tamoxifen, (Z)-2[p[(1,2-diphenyl-1-butenyl)phenoxyl]-N,N-dimethylamine citrate] as the molecule, how does the clinical benefit (malignant gliomas) read?
A: Its clinical benefit is “of benefit in some patients with malignant gliomas”.

Q: And the cytotoxicity [1]?
A: Its cytotoxicity is “responsive to tamoxifen cytotoxicity”.
